Results taken from patent publication US8729013B2 (priority 2004, dated 2014).
In brackets after ≈: the same amount, converted by molar mass. Non-standard residues stand in square brackets, D forms with d. Residues, ends and D or L forms follow the SMILES beside them. Orn(N5-OH,N5-Ac) = CC(=O)N(O)CCC[C@H](N)C(=O)O

How the values were obtained:
Format in all cases: cell-based, Staphylococcus aureus
[1] = system: S. aureus H804 (Newman sirB::Tet); experiment: Minimum inhibitory concentration (MIC) in TMS; settings: H804, bacteria grown in TMS
From the text: (§1) Streptonigrin is toxic to cells in the presence of intracellular iron and, therefore, cells importing iron are generally more sensitive to the toxic affects of this drug versus mutants debilitated in iron import (Yeowell et al. (1982) Antimicrob. Agents Chemother. 22:961-968). The minimum inhibitory concentration (MIC) of streptonigrin was approximately 4-fold lower for S. aureus Newman grown in TMS than for either S. aureus H803 or H804 grown in the same media (see Table 2).

S. aureus Newman = experiment: Minimum inhibitory concentration (MIC) in TMS
From the text: as §1

[2] = system: S. aureus H803 (Newman sirA::Km); experiment: Minimum inhibitory concentration (MIC) in TMS; settings: H803, bacteria grown in TMS
From the text: as §1

sirA and sirB mutants = experiment: Siderophore plate bioassay (growth promotion); settings: data not shown
Method: Siderophore plate bioassays were performed essentially as previously described (Sebulsky et al. (2000) J. Bacteriol. 182:4394-4400) with the following modifications: TMS-agar was cooled to 45° C. before the addition of 10^5 cfu/ml of each strain to be tested. 2,2′-dipyridyl was added at a concentration of 550 μM for plates containing S. aureus Newman and Newman containing vehicle controls (e.g. pAW8 and pALC2073) or 400 μM 2,2′-dipyridyl for strains H803 (Newman sirA::Km) and H804 (Newman sirB::Tet) (see FIG. 1) with or without plasmids. Staphylobactin siderophore was isolated from RN6390 as previously described (Dale et al. (2004) Infect. Immun. 72:29-37). Briefly, S. aureus strains were vigorously shaken in TMS for 48 hours at 37° C. Culture supernatants were recovered by centrifugation in 100% methanol to 1/10 of the volume of the original culture supernatant and passed through Whatman No. 1 filter paper to remove particulate material. Rotary evaporation was used to reduce the volume before application to an LH-20 column (Amersham Biosciences). Fractions were collected, and those testing positive with chrome azurol S (CAS) shuttle solution and for biological activity in siderophore plate bioassays were dried, resuspended in water, and examined by high-performance liquid chromatography (HPLC). Analytical reversed-phase HPLC was used for final purification of siderophore. The column utilized was a Waters ODS2 SPherisorb column (4.6 by 150 mm). Trifluoroacetic acid (0.1%) in water represented solvent A whereas 0.1% trifluoroacetic acid in acetonitrile was used as solvent B. The chromatographic method used was as follows: at a flow rate of 0.75 ml/min, 6% B for 3.5 min., followed by a gradient of 6 to 60% B over 20 min. […] Staphylobactin was collected, dried, and rechromatographed to check for purity. The purity of Staphylobactin siderophore was confirmed by HPLC analysis. Aerobactin was purchased from EMC microcollections and used at a concentration of 1 μg/ml as a control in all bioassays.

[3] = system: H1071 (RN6390 ΔfhuCBG::ermB); experiment: Siderophore plate bioassay (iron source utilization); settings: TMS agar, 25 μM EDDHA; compared with wildtype
Method: Siderophore plate bioassays were performed essentially as described (Sebulsky et al. (2000) J. Bacteriol. 182:4394-4400). Briefly, 10^4 cells/mL were added to molten TMS agar containing 25 μM EDDHA as an iron chelating agent. Ten microliters of iron sources to be tested (DESFERAL® (50 μM), ferrichrome (50 μM), enterobactin (500 μM), staphylobactin (50 μM DESFERAL® equivalents), hemin (250 μg/mL), hemoglobin (2 mg/mL), FeCl3 (50 mM), or ferric citrate (5 mM)) were added to sterile 6 mm-diameter paper disks and placed on the surface of the plates. Growth promotion, as measured by the diameter of the growth halo around each disk, was determined after 48 h incubation, except for heme and hemoglobin, which were measured after 72 hours.

[4] = Staphylococcus aureus, NEWMAN, read-out: MIC Streptonigrin

Row | Molecule | growth promotion in mutants (sirA and sirB mutants) | utilization as iron source by H1071 [3] | further results
1 | c1ccc(-c2ccccn2)nc1 [2,2′-dipyridyl] |  |  | MIC 2,2′-dipyridyl [1]: 125 µM (≈ 19.5 µg/mL); MIC higher for Newman than for H803 or H804 (S. aureus Newman): 4 fold; MIC 2,2′-dipyridyl (S. aureus Newman; Newman, bacteria grown in TMS): 500 µM (≈ 78.1 µg/mL); MIC 2,2′-dipyridyl [2]: 125 µM (≈ 19.5 µg/mL)
2 | CC(=O)N(O)CCCCCNC(=O)CCC(=O)N(O)CCCCCNC(=O)CCC(=O)N(O)CCCCCN [DESFERAL®, desferrioxamine B] | unaffected | unable to utilize | 
3 | COC1=C(N)C(=O)c2nc(-c3nc(C(=O)O)c(C)c(-c4ccc(OC)c(OC)c4O)c3N)ccc2C1=O [Streptonigrin, streptonigrin] |  |  | MIC [1, 4]: 8 ng/mL (≈ 0.0158 µM); MIC Streptonigrin (S. aureus Newman; Newman, bacteria grown in TMS): 2 ng/mL (≈ 0.00395 µM); MIC (S. aureus Newman; Staphylococcus aureus, Newman + 50 μM DESFERAL, TMS, read-out: MIC Streptonigrin): 2 ng/mL; MIC lower for Newman than for H803 or H804 (S. aureus Newman; grown in TMS): approximately 4 fold; MIC [2, 4]: 8 ng/mL (≈ 0.0158 µM)
4 | CC(=O)N(O)CCCC[C@H](NC(=O)CC(O)(CC(=O)N[C@@H](CCCCN(O)C(C)=O)C(=O)O)C(=O)O)C(=O)O [aerobactin] | unaffected | unable to utilize | 
5 | CC(=O)N[C@@H](CCCN([O-])C(=O)/C=C(\C)CCO)C(=O)OCC/C(C)=C/C(=O)N([O-])CCC[C@@H]1NC(=O)[C@H](CCCN([O-])C(=O)/C=C(\C)CCO)NC1=O.[Fe+3] [coprogen] |  | unable to utilize | 
6 | O=C(N[C@H]1COC(=O)[C@@H](NC(=O)c2cccc(O)c2O)COC(=O)[C@@H](NC(=O)c2cccc(O)c2O)COC1=O)c1cccc(O)c1O [enterobactin] |  | not significantly impaired | 
7 | CC(=O)N([O-])CCC[C@@H]1NC(=O)CNC(=O)CNC(=O)CNC(=O)[C@H](CCCN([O-])C(C)=O)NC(=O)[C@H](CCCN([O-])C(C)=O)NC1=O.[Fe+3] [ferrichrome] (cyclo(GGG[Orn(N5-OH,N5-Ac)][Orn(N5-OH,N5-Ac)][Orn(N5-OH,N5-Ac)])) |  | unable to utilize | 
8 | ferric citrate | unaffected | not significantly impaired | 
9 | hemin |  | not significantly impaired | 
10 | hemoglobin |  | not significantly impaired | 
